For one data set, the system named is DLD-1 cells. Kind of data set: DNA content analysis (cell cycle, flow cytometry) in DLD-1. The data set is classed as cell-based, human. To be noted: 24 h; for percentage of cell population in the G2/M phase / percentage of cells in the G1/S (combined) phase: DLD-1, 2 μM. The method, then: Cells were seeded in 6-well plates and allowed to adhere for 24 h at 37 °C. After treatment with different concentrations of the samples for another 24 h, the cells were harvested and washed with PBS, and then, the DNA content analysis was conducted with a cell cycle staining kit (Multi sciences, Hangzhou, China), according to the manufacturer’s instructions. The fluorescence intensity of the cells was measured by flow cytometry (Beckman CytoFlex, Miami, FL, USA).
Background: A flow cytometer gives signals particle by particle.

Data set [1] is described as follows: SRB cytotoxicity assay, hepatocyte HL-7702. Type of data set: cell-based, human. To be noted: HL-7702 hepatocyte cell line; SRB assay, 48 h, human hepatocyte, mean ± SD; read-out: IC50 Cytotoxicity HL-7702. The source says:
(§1) The cell lines MDA-MB-231 (No. TCHu227), A549 (No. TCHu150), and HepG2 (No. TCHu72) were obtained from the Cell Bank/Stem Cell Bank, Chinese Academy of Sciences (Shanghai, China). The cell lines DLD-1 (No. CC0507) and HCT116 (No. CC0506) were obtained from the Cell Bank of Cellcook Biotech Co., Ltd. (Guangzhou, China). Cell line HL-7702 (No. BNCC338358) was obtained from Bena Culture Collection (Zhengzhou, China).
(§2) The human cancer cell lines MDA-MB-231 (breast adenocarcinoma), DLD-1 (colorectal adenocarcinoma), A549 (lung epithelial carcinoma), HCT116 (colorectal adenocarcinoma), HepG2 (hepatocellular carcinoma), and human hepatocyte HL-7702 were cultured in Dulbecco’s modified eagle medium (DMEM, Biological Industries, Beit Haemek, Israel) containing 10% (v/v) fetal bovine serum (FBS, Biological Industries, Beit Haemek, Israel) at 37 °C in a humidified incubator (ThermoFisher, Carlsbad, CA, USA) with a 5% CO2 atmosphere.

For another data set, the target named is T1, DNA Topo I (Homo sapiens, UniProt P11387).
T1 construct: purchased ThermoFisher, Waltham, MA, USA
T1 sequence (P11387 1-765): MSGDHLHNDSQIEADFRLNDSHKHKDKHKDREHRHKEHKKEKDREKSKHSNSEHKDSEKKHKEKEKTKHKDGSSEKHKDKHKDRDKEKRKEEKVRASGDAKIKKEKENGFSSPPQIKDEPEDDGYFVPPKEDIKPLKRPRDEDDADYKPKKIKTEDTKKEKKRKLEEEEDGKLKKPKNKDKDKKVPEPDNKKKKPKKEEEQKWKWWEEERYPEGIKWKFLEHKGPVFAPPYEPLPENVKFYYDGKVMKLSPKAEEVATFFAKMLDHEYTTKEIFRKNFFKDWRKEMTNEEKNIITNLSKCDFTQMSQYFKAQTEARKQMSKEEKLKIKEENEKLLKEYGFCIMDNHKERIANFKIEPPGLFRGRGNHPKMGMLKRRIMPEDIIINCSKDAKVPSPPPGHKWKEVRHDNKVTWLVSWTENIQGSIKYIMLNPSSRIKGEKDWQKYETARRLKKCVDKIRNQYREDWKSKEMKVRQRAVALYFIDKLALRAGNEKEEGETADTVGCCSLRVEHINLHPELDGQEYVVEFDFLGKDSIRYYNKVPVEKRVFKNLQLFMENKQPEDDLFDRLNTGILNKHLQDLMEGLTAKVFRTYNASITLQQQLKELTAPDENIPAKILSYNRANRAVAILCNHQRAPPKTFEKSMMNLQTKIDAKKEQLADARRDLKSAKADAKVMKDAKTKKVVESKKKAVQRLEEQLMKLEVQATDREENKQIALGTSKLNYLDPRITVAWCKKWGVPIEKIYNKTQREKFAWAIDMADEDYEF
Kind of data set: Topo I inhibition assay (DNA relaxation assay). The data set is classed as biochemical. To be noted: for IC50: DNA relaxation assay, pBR322, mean ± SD; for inhibition at 400 µM: read-out: percentage inhibition on Topo I activity. The method, then: The DNA relaxation assay was adopted to investigate the compounds’ inhibitory activities on Topo I. Different concentrations of the compounds, dissolved and diluted in DMSO, were added into the relaxation buffer (50 mM Tris, pH 7.5, 50 mM KCl, 10 mM MgCl2, 0.1 mM EDTA, 0.5 Mm dithiothreitol, and 0.05 mg/mL bovine serum albumin) containing 0.2 U Topo I (ThermoFisher, Waltham, MA, USA) and incubated at room temperature for 10 min. After that, 500 ng supercoiled pBR322 plasmid DNA (ThermoFisher, Waltham, MA, USA) was added and then incubated at 37 °C for another 30 min. Finally, the reactions were stopped with a stopping solution (5% sodium dodecyl sulfate, 0.0025% bromophenol blue, and 25% glycerol), and the mixtures were applied onto 0.8% agarose gel and subjected to electrophoresis for 1.5 h in Tris-Acetate-EDTA buffer. After being stained with GelRed (Biotium, Fremont, CA, USA), the gel was imagined with the imaging system (Biotop, Shanghai, China). […] The band density of the supercoiled DNA was quantified by the ImageJ software (version 1.53a, National Institutes of Health, Bethesda, MD, USA), and the inhibition activity is expressed as the percentage inhibition and calculated by formula: Inhibition % = [(A − B)/(C − B)] × 100%, where A is the band density of the tested samples, B is the band density of the negative control, and C is the band density of the blank control.

A further data set relates to HepG2. As to the kind of experiment: SRB cytotoxicity assay, HepG2. The data set is classed as cell-based. Conditions: Homo sapiens, HepG2; SRB assay, 48 h, mean ± SD; read-out: IC50 Cytotoxicity HepG2.
From the text: as §1, §2
(The SRB assay estimates cell density from bound dye.)

A further data set relates to A549. Kind of data set: SRB cytotoxicity assay, A549. The data set is classed as cell-based. To be noted: Homo sapiens, A549; SRB assay, 48 h, mean ± SD; read-out: IC50 Cytotoxicity A549.
From the text: as §1, §2

In a further data set the test system is HCT116. As to the kind of experiment: SRB cytotoxicity assay, HCT116. Type of data set: cell-based. To be noted: Homo sapiens, HCT-116; SRB assay, 48 h, mean ± SD; read-out: IC50 Cytotoxicity HCT116.
From the text: as §1, §2

The next data set has as its system DLD-1. As to the kind of experiment: SRB cytotoxicity assay, DLD-1. The data set is classed as cell-based. To be noted: Homo sapiens, DLD-1; SRB assay, 48 h, mean ± SD; read-out: IC50 Cytotoxicity DLD-1.
From the text: as §1, §2

Another data set concerns MDA-MB-231. Kind of data set: SRB cytotoxicity assay, MDA-MB-231. Type of data set: cell-based. Conditions: Homo sapiens, MDA-MB-231; SRB assay, 48 h, mean ± SD; read-out: IC50 Cytotoxicity MDA-MB-231.
From the text: as §1, §2

The subject of data set [2] is A549, HCT116, MDA-MB-231, HepG2, DLD-1, HL-7702. Kind of data set: SRB cytotoxicity assay, panel of five human cancer cell lines and one human hepatocyte cell line. To be noted: tested concentration of 200 μM. The method, then: The cytotoxicities of 1–29 were tested by an SRB assay on a panel of five human cancer cell lines and one human hepatocyte cell line.
The cytotoxic activities of the compounds against cancer cells were examined with a sulforhodamine B (SRB) colorimetric assay. Cells were seeded at a density of 5 × 10^3/well in 96-well plates for 24 h; various concentrations of the tested compounds, dissolved in DMSO and diluted with the complete medium, were added in the wells in triplicate and incubated for 48 h. After that, the cell viability was assessed with the SRB assay as we described before. The IC50 values were determined using the Reed and Muench method and are expressed as the mean ± SD of at least three independent measurements.

In general, IC50 refers to the concentration needed to halve the response being measured. `COc1ccc(-c2oc3c(O)c(OC)c(O)cc3c(=O)c2OC)cc1O` [Compound 6]: the “percentage of cells in the G1/S phase” value turned out to be 82.61% in the data set on DLD-1 cells (DLD-1, 0.5 μM) and 88.65% with DLD-1 cells (DLD-1, 1 μM). Moreover, the “percentage of cell population in the G2/M phase” value in the data set on DLD-1 cells amounted to 76.49%. In addition, the “percentage of cells in the G1/S (combined) phase” value in the data set with DLD-1 cells is on record as 22.91%. The IC50 at 48 h in data set [1] amounted to 23.9 ± 5.73 µM. In addition, the IC50 against DNA Topo I was 239 ± 31.4 µM; in the data set on HepG2 it was 34.6 ± 8.01 µM; in the data set on A549, 3.09 ± 0.28 µM; in the data set on HCT116, 0.59 ± 0.1 µM; in the data set on DLD-1, 1.58 ± 0.07 µM; in the data set on MDA-MB-231, greater than 200 µM.

Take `COc1cc(-c2oc3cc(O)c(OC)c(O)c3c(=O)c2OC)ccc1O` [Compound 7]: the “percentage of cells in the G1/S phase” value is on record as 81.16% in the data set on DLD-1 cells (DLD-1, 0.5 μM) and 86.07% in the data set with DLD-1 cells (DLD-1, 1 μM). Also, the “percentage of cell population in the G2/M phase” value in the data set with DLD-1 cells is given as 75.75%. Besides, the “percentage of cells in the G1/S (combined) phase” value with DLD-1 cells stood at 24.26%. Further, in data set [1], the IC50 at 48 h was 11.4 ± 4.42 µM. Further, the IC50 against DNA Topo I came out at 224 ± 27.2 µM; with HepG2, 28.4 ± 13.1 µM; with A549 it was 0.86 ± 0.03 µM; with HCT116 it was 0.43 ± 0.03 µM; in the data set on DLD-1, 0.85 ± 0.02 µM; with MDA-MB-231, 81.6 ± 7.43 µM.

In general, inhibition refers to the change of the read-out against control, counted positive when it falls. Regarding `O=c1c(O[C@@H]2O[C@H](CO)[C@H](O)[C@H](O)[C@H]2O)c(-c2ccc(O)cc2)oc2cc(O)cc(O)c12` [Compound 11], the IC50 at 48 h in data set [1] was greater than 200 µM. For the same compound, the IC50 was greater than 400 µM against DNA Topo I; greater than 200 µM in the data set with HepG2; greater than 200 µM in the data set with A549; greater than 200 µM in the data set with HCT116; greater than 200 µM in the data set on DLD-1; greater than 200 µM with MDA-MB-231. Moreover, the inhibition at 400 µM on DNA Topo I stood at 28.6%. In addition, the “cytotoxicity in all cell lines” value in data set [2] is listed as “no cytotoxicity”.

`OC[C@H](O)CC#CC#Cc1ccc(O)cc1` [Compound 20, (R)-7-(4-hydroxyphenyl) hepta-4,6-diyne-1,2-diol]: the IC50 at 48 h in [1] was greater than 200 µM. Moreover, the IC50 was 301 ± 34.9 µM against DNA Topo I; greater than 200 µM in the data set with HepG2; 194 ± 12.8 µM in the data set with A549; 174 ± 2.47 µM with HCT116; greater than 200 µM in the data set on DLD-1; greater than 200 µM in the data set on MDA-MB-231.

For the compound `OCC(O)CC#CC#Cc1ccccc1` (centres unmarked) [Compound 21], in [1], the IC50 at 48 h was greater than 200 µM. Besides, the IC50 on DNA Topo I is greater than 400 µM; with HepG2 it was greater than 200 µM; in the data set with A549, 187 ± 6.63 µM; with HCT116, greater than 200 µM; with DLD-1 it was greater than 200 µM; in the data set with MDA-MB-231 it was greater than 200 µM. Besides, the inhibition at 400 µM at DNA Topo I stood at 23%.

For the compound `CC(O)CC#CC#Cc1ccccc1` (centres unmarked) [Compound 22], the IC50 at 48 h in [1] worked out at 161 ± 2.18 µM. Also, the IC50 at DNA Topo I is 178 ± 45.7 µM; in the data set with HepG2, 179 ± 3.62 µM; in the data set on A549 it was 125 ± 23.4 µM; in the data set with HCT116, 118 ± 5.7 µM; with DLD-1, 142 ± 10.2 µM; with MDA-MB-231, 146 ± 7.17 µM.

The values are drawn from paper PMC11314063, “Inhibition of DNA Topoisomerase Ι by Flavonoids and Polyacetylenes Isolated from Bidens pilosa L” (Molecules, 2024).
